From paper PMC6017705, “Discovery of N-(Naphtho[1,2-b]Furan-5-Yl) Benzenesulfonamides as Novel Selective Inhibitors of Triple-Negative Breast Cancer (TNBC)” (Molecules : A Journal of Synthetic Chemistry and Natural …, 2018)
Entries after “also recorded” stand apart in the source; their conditions may differ.

Assays:
[1] = tested on: MDA-MB-436; test: Cell viability assay, MDA-MB-436; type: cell-based; settings: Homo sapiens, TNBC cell line
Description: In addition to three TNBC cell lines (MDA-MB-231, MDA-MB-436, and SUM-159) and the breast cancer cell line MCF-7, we employed the normal mammary epithelial cell line MCF-10A, which was used for testing the compounds for their effects on normal breast cells (Table 6).
(§1) Four human TNBC cell lines (MDA-MB-231, MDA-MB-453, SUM-159, and BT-20), a non-TNBC breast cancer cell line (MCF-7) and a normal mammary epithelial cell line (MCF-10A) were cultured with DMEM (phenol free) supplemented with 2.5% CS-FBS and 1% L-Glu. 1.2 × 10^3 of cells were seeded into 384-well microplates and maintained for 24 h in an incubator at 37 °C in a 5% CO2, saturated humidified atmosphere. Different compounds were added into cells with 9 concentrations from 0.156 to 40 μM for 72 h. […] Then CCK-8 solution was added into cells and incubated for another 4 h. Absorbance was measured with a Microplate Reader at 450/600 nm. The IC50 values of the compounds on TNBC cell lines were derived using GraphPad Prism 5.0 (GraphPad Software, Inc., La Jolla, CA, USA).

[2] = tested on: SUM-159; test: Cell viability assay (CCK-8), SUM-159; type: cell-based, human; settings: for inhibition at 5 µg/mL: SUM159; for IC50: TNBC cell line, CCK-8, 72 h, 0.156 to 40 μM
Description: as §1, with “Different compounds were added into cells with 9 concentrations from 0.156 to 40 μM for 72 h.” left out

[3] = tested on: MDA-MB-231; test: Cell viability assay (CCK-8), MDA-MB-231; type: cell-based, human; settings: for inhibition at 5 µg/mL: MDA-MB-231; for IC50: TNBC cell line, CCK-8, 72 h, 0.156 to 40 μM
Description: as §1, with “Different compounds were added into cells with 9 concentrations from 0.156 to 40 μM for 72 h.” left out

[4] = tested on: MCF-10A; test: Cell viability assay (CCK-8), MCF-10A; type: cell-based, human; settings: for IC50: Homo sapiens, MCF-10A, normal mammary epithelial cell line, CCK-8, 72 h
Description: as §1

[5] = tested on: MCF-7; test: Cell viability assay (CCK-8), MCF-7; type: cell-based, human; settings: for inhibition at 5 µg/mL / IC50: Homo sapiens; for inhibition at 5 µg/mL: MCF7; for IC50: MCF7, 72 h, non-TNBC breast cancer cell line, CCK-8, 72 h
Description: as §1, with “Different compounds were added into cells with 9 concentrations from 0.156 to 40 μM for 72 h.” left out

[6] = tested on: TNBC cell lines; test: Cell viability assay, different TNBC cell lines; type: cell-based, human; settings: for IC50: Homo sapiens
Description: as §1

[7] = tested on: MDA-MB-453; test: Cell viability assay (CCK-8), MDA-MB-453; type: cell-based; settings: Homo sapiens, TNBC cell line, CCK-8, 72 h, 0.156 to 40 μM
Description: as §1

[8] = tested on: BT-20; test: Cell viability assay (CCK-8), BT-20; type: cell-based; settings: Homo sapiens, TNBC cell line, CCK-8, 72 h, 0.156 to 40 μM
Description: as §1

[9] = tested on: signal transducer and activator of transcription 3 (STAT3); design: method as in ref 21, 22 = [21]; 21. Tweardy D.J. Huang X. Kasembeli M.M. Stat3 Inhibitors W.O. Patent 2009149192 A1 10 12 2009 || [22]; 22. Tweardy D.J. Kasembeli M.M. Xu M.X. Eckols T.K. Methods and Compositions for Treatment of Muscle Wasting, Muscle Weakness, and/or Cachexia Using Inhibitors of Stat3 W.O. Patent 2015010107 A1 22 1; settings: antitumor agent; cited from earlier work
[10] = tested on: heme detoxification protein (HDP); design: method as in ref 20 = [20]; 20. Rathore D. Jani D. Nagarkatti R. HDP (Heme Detoxification Protein) Involved in Hemozoin Formation in Plasmodium and Theileria as an Anti-protozoal Target, and High-throughput Screening for Antimal; settings: cited from earlier work

Structure (SMILES)	IC50 [1] [µM]	inhibition at 5 µg/mL ([2]; Homo sapiens) [%]	IC50 ([2]; Homo sapiens, SUM159, 72 h) [µM]	inhibition at 5 µg/mL ([3]; Homo sapiens) [%]	IC50 ([3]; Homo sapiens, MDA-MB-231, 72 h) [µM]	IC50 [4] [µM]	inhibition at 5 µg/mL [5] [%]	IC50 [2] [µM]	fold reduced inhibitory activity compared to the ester compound (2-5) ([6]; both TNBC cell lines (MDA-MB-231, SUM-159))	IC50 [3] [µM]	IC50 [7] [µM]	IC50 [6] [µM]	inhibitory effect on MCF-10A (in words) [4]	inhibitory effect on MCF-7 (in words) [5]	IC50 [5] [µM]	IC50 [8] [µM]	inhibition of STAT3 (in words) [9]	antimalarial HDP inhibitor (in words) [10]
CCOc1ccc(S(=O)(=O)Nc2cc3c(C(=O)OC)c(C)oc3c3ccccc23)cc1 [Compound 3-9]	2.08	60.8	2.66	63	2.68	> 40	24.3											
CCOC(=O)c1c(C)oc2c1cc(NS(=O)(=O)c1ccc(OCC)cc1)c1ccccc12 [Compound 3-37]	1.41	66.8	4.09	59.7	5.49	> 40	42.5											
COc1ccc(S(=O)(=O)Nc2cc3c(C(=O)O)c(C)oc3c3ccccc23)cc1 [Compound 2-5-COOH]			> 20		> 20			24.2	approximately 10 fold	~24								
COC(=O)c1c(C)oc2c1cc(NS(=O)(=O)c1ccc(OC)cc1)c1ccccc12 [Compound 2-5]	1.99	56.8	2.91	31	3.12	> 40					2.95	2 to 3	no inhibitory activity	no inhibitory effect; also recorded: no inhibitory activity	> 40	> 40		
COc1ccc(S(=O)(=O)Nc2cc(Cl)c(O)c3ccccc23)cc1 [Compound 2-9]			18.1		6.22						4.61				> 40	> 40	inhibition	
CCCCOC(=O)c1c(C)oc2c1cc(NS(=O)(=O)c1ccc(OC)cc1)c1ccccc12 [Compound 3-3]	3.36	42.1	8.66	51.1	3.25	> 40	29.7											
CCOc1ccc(S(=O)(=O)Nc2cc3c(C(C)=O)c(C)oc3c3ccccc23)cc1 [Compound 3-17]	~0.01	61	1.94	68.6	1.77	0.66	40.5											
COC(=O)c1c(C(C)(C)C)oc2c1cc(NS(=O)(=O)c1ccc(OC)cc1)c1ccccc12 [Compound 3-12]	7.13	90.4	11.5	71.4	11.9	> 40	76.3											
CCOC(=O)c1c(C)oc2c1cc(NS(=O)(=O)c1ccc(OC)cc1)c1ccccc12 [Compound 2-8]	2.8	61.8	2.5	62.9	2.96	> 40					3.09	2 to 3	no inhibitory activity	no inhibitory effect; also recorded: no inhibitory activity	> 40	10.1		
CCOc1ccc(S(=O)(=O)Nc2cc(Cl)c(O)c3ccccc23)cc1 [Compound 2-11]			> 40		6.92						5.72				> 40	> 40		inhibitor
